Assay type in all cases: cell-based, human
The subject of data set [1] is BEC. Briefly: ELISA of control BEC supernatants. From the text:
(§1) Human surgical specimens were obtained following written informed consent from patients in accordance with Declaration of Helsinki guidelines and the Institutional Review Board (HS-04B053), at Keck School of Medicine, USC. AVM-BECs were isolated from brain tissues of patients who underwent microsurgical AVM resection. Control BECs were isolated from the structurally normal […] of patients who underwent temporal lobectomy for intractable epilepsy. Endothelial cell (EC) isolation and culture were described^5,9. (Stapleton C J, Armstrong D L, Zidovetzki R, Liu C Y, Giannotta S L, Hofman F M. Thrombospondin-1 modulates the angiogenic phenotype of human cerebral arteriovenous malformation endothelial cells. Neurosurgery. 2011; 68(5):1342-1353) (Ferreira R, Santos T, Amar A, et al. Argonaute-2 promotes miR-18a entry in human brain endothelial cells. J Am Heart Assoc. 2014; 3(3):e000968) ECs were only used between passages 3-5. Experiments were performed under shear flow conditions (12 dyn/cm^2) to reproduce arterial flow^6. (Ferreira R, Santos T, Amar A, et al. MicroRNA-18a improves human cerebral arteriovenous malformation endothelial cell function. Stroke. 2014; 45(1):293-297). For hypoxic experiments, cells were cultured in a Galaxy 48R (Eppendorf) incubator at 3% O2. MicroRNAs were co-administered with Ago-2 to increase the cellular uptake of miR-18a^9 (Ferreira R, Santos T, Amar A, et al. Argonaute-2 promotes miR-18a entry in human brain endothelial cells. J Am Heart Assoc. 2014; 3(3):e000968) (FIG. 9). Methods regarding cell treatments and transfections were included in Data.
(§2) Small interfering RNA transfection was performed as previously described^5. Briefly, ECs were transfected with small interfering RNA (siRNA) against ID1 or PAI-1 (Thermo Fisher Scientific), or small interfering control (Santa Cruz Biotechnology) constructs using Lipofectamine RNAiMax (Thermo Fisher Scientific) per the manufacturer's instructions. Knockdown of ID1 or PAI-1 was confirmed by quantitative real-time polymerase chain reaction as described^6 (FIG. 19). The sequences of the forward and reverse primers for ID1 and PAI-1 were included in Table 2.
(§3) Plasmid constructs pcDNA3-ALK2^WT (Addgene #80870) and pcDNA3-ALK2^Q207D (Addgene #80871) were a gift from Aristidis Moustakas^7. (Meyer B, Schaller C, Frenkel C, Ebeling B, Schramm J. Distributions of local oxygen saturation and its response to changes of mean arterial blood pressure in the cerebral cortex adjacent to arteriovenous malformations. Stroke. 1999; 30(12):2623-2630) 10^4 AVM-BEC were seeded 24 h before transfection. The plasmid vector containing the 3′ untranslated region (3′UTR) of human BMP4, pRP [Exp]-Puro-CMV>Luciferase:{hBMP4_3′UTR}, was constructed and packaged by VectorBuilder. The vector ID is VB200205-1078zdv, which can be used to retrieve detailed information about the vector on vectorbuilder.com. Transient transfections were performed with Lipofectamine RNAiMax (Thermo Fisher Scientific) according to the manufacturer's instructions. After 4 h, medium was replaced by fresh medium containing microRNA.
(§4) MiR-18a (hsa-miR-18a-5p, 40 nM, Dharmacon) or a scramble microRNA (40 nM, Dharmacon) in nuclease-free water was added with argonaute 2 (Ago-2, 0.4 nM, Abcam) as the microRNA carrier and stabilizer^9. (Ferreira R, Santos T, Amar A, et al. Argonaute-2 promotes miR-18a entry in human brain endothelial cells. J Am Heart Assoc. 2014; 3(3):e000968). No transfection reagent was used with miR-18a or scramble microRNA treatments. Recombinant human TSP-1 (R&D Systems) stock solution was prepared in PBS and further diluted in culture medium to be used at a final concentration of 1000 ng/mL. Cells were treated during 24 h for mRNA and 48 h for protein expression studies. NEO100 (NeOnc Technologies) stock was prepared in DMSO and used immediately or stored at −20° C. […]
On the technique in general: ELISA stands for enzyme-linked immunosorbent assay.

In data set [2] the test system is AVM-BEC. Put plainly: ELISA of AVM-BEC supernatants.
Text: as §1, §2, §3, §4

The test system of data set [3] is BEC. Put plainly: Western blot of control BEC lysates. The following applies: untreated vs scramble vs miR-18a.
Text: as §1, with “(Ferreira R, Santos T, Amar A, et al. MicroRNA-18a improves human cerebral arteriovenous malformation endothelial cell function. Stroke. 2014; 45(1):293-297). For hypoxic experiments, cells were cultured in a Galaxy 48R (Eppendorf) incubator at 3% O2. MicroRNAs were co-administered with Ago-2 to increase the cellular uptake of miR-18a^9 (Ferreira R, Santos T, Amar A, et al. Argonaute-2 promotes miR-18a entry in human brain endothelial cells. J Am Heart Assoc. 2014; 3(3):e000968) (FIG. 9). Methods regarding cell treatments and transfections were included in Data.” left out
The levels of angiogenesis-related proteins were analyzed using the Proteome Profiler™ Human Angiogenesis Array kit (R&D Systems) following the manufacturer's instructions. […] Membranes were visualized and quantified using a C-Digit Blot scanner (Li-Cor) or a iBright CL1000 (Thermo Fisher Scientific).
(In general: In western blotting, separated proteins are transferred to a membrane and probed.)

Data set [4] concerns AVM-BEC. Put plainly: Invasion assay, Matrigel-coated Boyden chamber, AVM-BEC. The following applies: overnight, P=0.0012. From the text: The chemoinvasion assay was described^14. (Marín-Ramos N I, Thein T Z, Cho H-Y, et al. NEO212 inhibits migration and invasion of glioma stem cells. Mol Cancer Ther. 2018; 17(3):625-637). Pictures were captured using an Eclipse 80i microscope (Nikon), and cells counted with ImageJ Software (NIH).

The mark [5] stands for this setting: control BEC supernatants, normoxia.

Take “hsa-miR-18a-5p (UAGGUGCAUCUAGUGCAGAUAG; chemistry not given here; listed as Homo sapiens) [small non-coding RNA molecule involved in post-transcriptional regulation of gene expression; Dharmacon]”: the “VEGF secretion (ELISA)” value in data set [1] (BEC transfected with ALK2, P>0.9999) is “No significant changes”. For the same substance, the “levels of secreted PAI-1” value was “without affecting control BEC” in data set [1] (setting [5]) and “decreased” in data set [2] (AVM-BEC supernatants, normoxia, vs scramble microRNA). The “levels of secreted VEGF” value in data set [1] (setting [5]) is reported as “without affecting control BEC”; in data set [1] (control BEC transfected with siCTL) it was “without affecting control BEC”; in data set [2] (AVM-BEC supernatants, normoxia, decrease only reached significance with miR-18a) it was “decreased”; in data set [2] (AVM-BEC transfected with siCTL, P=0.0007 vs scramble), “decreased”. Besides, the “VEGF levels (ELISA)” value in data set [2] (ALK2^WT-transfected AVM-BEC, P=0.0030) is “decrease VEGF levels”; in data set [2] (AVM-BEC transfected with constitutively active ALK2^Q207D, P>0.9999), “unable to decrease VEGF levels”. For the same substance, the “levels of secreted TGF-β (ELISA)” value in data set [2] (AVM-BEC supernatants, P>0.9999) is on record as “not significantly changed”. Also, in data set [2] (AVM-BEC transfected with siPAI-1), the “effects of miR-18a in the decrease of secreted VEGF levels” value is recorded as “lost”. Also, the PAI-1 secretion entry in data set [2] (AVM-BEC, hypoxia 3% oxygen) is recorded as “reduction of PAI-1 secretion caused by miR-18a was still observed”. Further, the “levels of bFGF, ET-1, PAI-1 and VEGF (western blot)” value in data set [3] was “remained unaltered”. The invasiveness entry in data set [4] is listed as “decreased”.

(Values after patent US20230212571A1, “COMPOSITIONS AND METHODS FOR DELIVERING POLYNUCLEOTIDES” (NeOnc Technologies, Inc., priority 2020, published 2023).)
